# Key:
# [1] = system: bacterial mix: Escherichia coli DSM 1576, Alcaligenes faecalis DSM 13644, Pseudomonas aeuginosa ATCC 15442, Staphylococcus aureus ATCC 6538, Burkholderia …; assay: Preservative activity of a basic composition (10% PG in water, pH 7) with 2-phenoxyethanol against bacterial contamination (Example 2.1); format: cell-based; conditions: 10% PG + 0.36% PE + 0.04% amide; for d7 [CFU/ml]: day 7; for d14 [CFU/ml]: day 14; for d21 [CFU/ml]: day 21
# Method: An aqueous composition of pH 7 comprising 10% by weight of propyleneglycol (PG) as organic solvent, 0.36% by weight of 2-phenoxyethanol (PE) as antimicrobial and 0.04% by weight of the amide listed in the below table was tested for its preserving activity against bacterial contamination (the weight percentages relate to the total weight of the composition). For this purpose, the samples were contaminated with a bacterial mix consisting of: • Escherichia coli DSM 1576 • Alcaligenes faecalis DSM 13644 • Pseudomonas aeuginosa ATCC 15442 • Staphylococcus aureus ATCC 6538 • Burkholderia cepacia DSM 7288 • Pseudomonas putida DSM 12735
# The samples were inoculated with the bacterial mix at day 0, 7 and 14 to obtain 10E+06 to 10E+07 CFU/ml inoculation in the test samples (compositions listed in the below table) consisting of 10% by weight of propylene glycol in water and stored at 25° C. for 21 days.
# (§1) CFU was determined before re-inoculation at days 7 and 14, and on day 21.
# [2] = system: fungal mix (including yeasts and molds): Aspergillus brasiliensis DSM 1988, Rhodotorula mucilaginosa DSM 13621, Yarrowia lipolytica DSM 8218; assay: Preservative activity of a basic composition (10% PG in water, pH 7) with 2-phenoxyethanol against fungal contamination (Example 1.1); format: cell-based; conditions: 10% PG + 0.36% PE + 0.04% Amide in water, pH 7, 25° C.; for d7 [CFU/ml]: fungal mix inoculated at day 0, 7 and 14 (1-3x10E+05 CFU/ml), day 7 before re-inoculation; for d14 [CFU/ml] / d21 [CFU/ml]: fungal mix inoculated at day 0, 7 and 14; for d14 [CFU/ml]: day 14 before re-inoculation; for d21 [CFU/ml]: day 21
# Method: An aqueous composition of pH 7 comprising 10% by weight of propyleneglycol (PG) as organic solvent, 0.36% by weight of 2-phenoxyethanol (PE) as antimicrobial and 0.04% by weight of the amide listed in the below table was tested for its preserving activity against fungal contamination (the percentages are weight percent and relate to the total weight of the composition). For this purpose, the samples were contaminated with a fungal mix (including yeasts and molds) consisting of: • Aspergillus brasiliensis DS M 1988 • Rhodotorula mucilaginosa DSM 13621 • Yarrowia lipolytica DS M 8218
# To control the efficacy, following control compositions were tested: • “Reference”, consisting of only 10% by weight of propylene glycol in water • “Comparative 1” containing 10% by weight of propylene glycol and amide in the given concentration, but no 2-phenoxyethanol • […] in the given concentration, but no amide.
# The samples were inoculated with the fungal mix at day 0, 7 and 14 to obtain a cell density in the range of 1-3×10E+05 CFU/ml (CFU=colony forming units) in the test samples (compositions listed in the below table) and stored at 25° C. for 21 days.
# as §1
Compound,d7 [CFU/ml] [1],d14 [CFU/ml] [1],d21 [CFU/ml] [1],d7 [CFU/ml] [2],d14 [CFU/ml] [2],d21 [CFU/ml] [2]
"CCCCCC(CCC)C(=O)N(C)C (stereo not drawn) [2-Propyl-heptanoyl-N,N-dimethylamide]",<10 CFU/ml,90 CFU/ml,"2,700 CFU/ml",–,–,–
"CCCCCC(CCC)C(=O)N(C)C (stereo not drawn) [2-Propylheptanoyl-N,N-dimethylamide]",–,–,–,"5,200 CFU/ml","3,250 CFU/ml","8,000 CFU/ml"
"CCCCCCCCCCCC(=O)N(C)C [Dodecanoyl-N,N-dimethylamide]",<10 CFU/ml,<10 CFU/ml,450 CFU/ml,25 CFU/ml,170 CFU/ml,245 CFU/ml
"CCCCCCN(CCCCCC)C(C)=O [Ethanoyl-N,N-dihexylamide]",75 CFU/ml,200 CFU/ml,"1,450 CFU/ml","3,100 CFU/ml","2,750 CFU/ml","2,450 CFU/ml"
"CC(CC(=O)N(C)C)CC(C)(C)C (stereo not drawn) [Isononanoyl-N,N-dimethylamide]","3,850 CFU/ml","13,500 CFU/ml","5,000 CFU/ml","3,600 CFU/ml","3,350 CFU/ml","15,000 CFU/ml"
